According to the Deep4Chem optical property database:

Experiment: solvent given as SMILES

Question: Which fluorescence lifetime (in C1CCCCC1) does the source give for CCOC(=O)C(C(=O)OCC)C1=[N+]2C(=C(c3ccc(C)cc3)c3ccc(C(C(=O)OCC)C(=O)OCC)n3[B-]2(F)F)C=C1 here?
Answer: 3.15 ns

Question: And the fluorescence lifetime (in C1CCOC1)?
Answer: 2.82 ns

Question: What about the fluorescence lifetime (in CCOC(C)=O) of the same molecule?
Answer: 2.5 ns

Question: What about the fluorescence lifetime (in CO) of the same molecule?
Answer: 2.18 ns

Question: What about the fluorescence lifetime (in Cc1ccccc1) of the same molecule?
Answer: 4.14 ns

Question: And the fluorescence lifetime (in ClC(Cl)Cl)?
Answer: 3.62 ns

Question: For F[B-]1(F)n2c(c3cccc4cccc2c43)=Nc2sc3ccccc3[n+]21, which fluorescence lifetime (in ClCCl) is on record?
Answer: 6.6 ns

Question: Which fluorescence lifetime (in Cc1ccccc1) does the source give for Cc1ccc2c(c1)C(c1ccccc1)(c1ccccc1)c1cc(C)ccc1N2c1ccc2c(c1)N(c1ccccc1)c1ccccc1B2c1c(C(C)C)cc(C(C)C)cc1C(C)C here?
Answer: 5.6 ns

Question: And the fluorescence lifetime (in O=P(c1ccccc1)(c1ccccc1)c1ccc2oc3ccc(P(=O)(c4ccccc4)c4ccccc4)cc3c2c1)?
Answer: 8.7 ns

Question: What does the source list for CN(C)c1ccc2c(-c3ccc(N)cc3C(=O)[O-])c3ccc(=[N+](C)C)cc-3oc2c1?
Answer: fluorescence lifetime (in CCO): 3.19 ns; fluorescence lifetime (in O): 2.23 ns

Question: For COc1cc(N2CCOCCOCCN(c3cc(OC)c(NC(=O)c4ccc(-c5c6cc(Cl)c(=O)cc-6oc6cc([O-])c(Cl)cc56)c(C(=O)[O-])c4)cc3OC)CCOCC2)c(OC)cc1NC(=O)c1ccc(-c2c3cc(Cl)c(=O)cc-3oc3cc([O-])c(Cl)cc23)c(C(=O)[O-])c1, which fluorescence lifetime (in O) is on record?
Answer: 1.13 ns

Question: With CCCCCCN1C(=O)c2cccc3c(-c4scc5c4OCCO5)ccc(c23)C1=O as the molecule, how does the fluorescence lifetime (in ClC(Cl)Cl) read?
Answer: 3.51 ns

Question: Which fluorescence lifetime (in ClC(Cl)Cl) does the source give for CCCCCCN1C(=O)c2cc(-c3ccc(-n4c5ccccc5c5ccccc54)cc3)c(-c3ccc(-n4c5ccccc5c5ccccc54)cc3)cc2C1=O here?
Answer: 11.2 ns

Question: What about the fluorescence lifetime (in c1ccc2c(c1)c1ccccc1n2-c1ccc(-c2ccc(-n3c4ccccc4c4ccccc43)cc2)cc1) of the same molecule?
Answer: 10 ns

Question: Which fluorescence lifetime (in C1CCCCC1) does the source give for CC(C)[Si]1(C(C)C)c2ccccc2-c2ccc(N(C)C)cc21 here?
Answer: 6.5 ns

Question: What about the fluorescence lifetime (in ClCCl) of the same molecule?
Answer: 4 ns

Question: With COc1cccc(/C=C/c2ccccc2)c1 as the molecule, how does the fluorescence lifetime (in CC#N) read?
Answer: 0.93 ns

Question: For CC1=[N+]2C(=C(c3ccc(C(=C(c4ccccc4)c4ccccc4)c4ccccc4)cc3)c3ccc(C)n3[B-]2(F)F)C=C1, which fluorescence lifetime (in C1CCOC1) is on record?
Answer: 1.13 ns

Question: With Cc1cc(C)cc(C)c1 as the molecule, how does the fluorescence lifetime (in C1CCCCC1) read?
Answer: 73 ns

Question: Which fluorescence lifetime (in O=P(c1ccccc1)(c1ccccc1)c1ccccc1Oc1ccccc1P(=O)(c1ccccc1)c1ccccc1) does the source give for CC1(C)c2ccccc2N(c2ccccc2)c2ccc(-c3ccc(C(=O)c4ccc(-c5ccc6c(c5)C(C)(C)c5ccccc5N6c5ccccc5)cc4)cc3)cc21 here?
Answer: 1.87 ns

Question: Which fluorescence lifetime (in ClC(Cl)Cl) does the source give for c1ccc(-c2nc(-c3ccc(N4CCCC4)cc3)cc(-c3ccc4ccccc4c3)n2)cc1 here?
Answer: 2.4 ns

Question: Which fluorescence lifetime (in C1CCCCC1) does the source give for N#Cc1cccc2ccccc12 here?
Answer: 15.9 ns

Question: What about the fluorescence lifetime (in C1CCOC1) of the same molecule?
Answer: 11 ns

Question: And the fluorescence lifetime (in CCCCCCC)?
Answer: 17.7 ns

Question: What about the fluorescence lifetime (in CCCCOC(C)=O) of the same molecule?
Answer: 12.9 ns

Question: And the fluorescence lifetime (in CCCOC(C)=O)?
Answer: 12.8 ns

Question: What about the fluorescence lifetime (in CCOC(C)=O) of the same molecule?
Answer: 11.9 ns

Question: What about the fluorescence lifetime (in CCOCC) of the same molecule?
Answer: 13.7 ns

Question: What about the fluorescence lifetime (in Cc1ccccc1) of the same molecule?
Answer: 12.8 ns

Question: Which results are given for Cc1ccc(C2=C3C=CC(C#Cc4ccccc4)=[N+]3[B-](F)(F)n3c(Cl)ccc32)cc1?
Answer: fluorescence lifetime (in C1CCCCC1): 4.31 ns; fluorescence lifetime (in C1CCOC1): 4.24 ns; fluorescence lifetime (in C1COCCO1): 4.43 ns; fluorescence lifetime (in CCOC(C)=O): 4.34 ns; fluorescence lifetime (in CO): 4.25 ns; fluorescence lifetime (in Cc1ccccc1): 4.45 ns; fluorescence lifetime (in ClC(Cl)Cl): 4.73 ns

Question: With CCC1(CC)c2cc(-c3ccc4c(c3)C(CC)(CC)c3cc(C(C)(C)C)ccc3-4)ccc2-c2ccc(-c3ccc4c(c3)C(CC)(CC)c3cc(C(C)(C)C)ccc3-4)cc21 as the molecule, how does the fluorescence lifetime (in CCCCC) read?
Answer: 0.72 ns

Question: And the fluorescence lifetime (in CCCCCC)?
Answer: 0.67 ns

Question: And the fluorescence lifetime (in CCCCCCC)?
Answer: 0.67 ns

Question: What about the fluorescence lifetime (in CCCCCCCC) of the same molecule?
Answer: 0.7 ns

Question: What about the fluorescence lifetime (in CCCCCCCCC) of the same molecule?
Answer: 0.7 ns

Question: What about the fluorescence lifetime (in CCCCCCCCCC) of the same molecule?
Answer: 0.71 ns

Question: And the fluorescence lifetime (in CCCCCCCCCCCC)?
Answer: 0.74 ns

Question: And the fluorescence lifetime (in CCCCCCCCCCCCC)?
Answer: 0.76 ns

Question: What about the fluorescence lifetime (in CCCCCCCCCCCCCCC) of the same molecule?
Answer: 0.75 ns

Question: What about the fluorescence lifetime (in CCCCCCCCCCCCCCCC) of the same molecule?
Answer: 0.75 ns

Question: And the fluorescence lifetime (in CCCCCCCCCCO)?
Answer: 0.8 ns

Question: And the fluorescence lifetime (in CCCCCCCCCO)?
Answer: 0.74 ns

Question: And the fluorescence lifetime (in CCCCCCCCO)?
Answer: 0.75 ns

Question: What about the fluorescence lifetime (in CCCCCCCO) of the same molecule?
Answer: 0.75 ns

Question: And the fluorescence lifetime (in CCCCCCO)?
Answer: 0.76 ns

Question: What about the fluorescence lifetime (in CCCCCO) of the same molecule?
Answer: 0.76 ns

Question: What about the fluorescence lifetime (in CCCCO) of the same molecule?
Answer: 0.78 ns

Question: And the fluorescence lifetime (in CCCO)?
Answer: 0.8 ns

Question: What about the fluorescence lifetime (in CCO) of the same molecule?
Answer: 0.8 ns

Question: And the fluorescence lifetime (in CO)?
Answer: 0.78 ns

Question: For C[Si](C)(C)c1ccc2ccc3c([Si](C)(C)C)ccc4ccc1c2c43, which fluorescence lifetime (in CCCCCC) is on record?
Answer: 53.7 ns

Question: What about the fluorescence lifetime (in CO) of the same molecule?
Answer: 71.8 ns

Question: And the fluorescence lifetime (in ClCCl)?
Answer: 65.5 ns

Question: What does the source list for CCCCCCC(CCCCCC)N1C(=O)c2cccc3c(-c4ccc(-c5ccc(OC)cc5)cc4)ccc(c23)C1=O?
Answer: fluorescence lifetime (in CCCCCC): 1.35 ns; fluorescence lifetime (in CCCCCCCCCCCCCC): 1.43 ns; fluorescence lifetime (in CCCCCCCCCCCO): 3.21 ns; fluorescence lifetime (in CCCCO): 1.05 ns; fluorescence lifetime (in CN(C)C=O): 1.91 ns; fluorescence lifetime (in Cc1ccccc1): 1.4 ns; fluorescence lifetime (in ClC(Cl)Cl): 2.93 ns

Question: With C[n+]1ccc(-c2cc[n+](C)cc2)cc1 as the molecule, how does the fluorescence lifetime (in CC#N) read?
Answer: 0.9 ns

Question: For CCC1(CC)c2cc(-c3cccs3)ccc2-c2c1c1c(c3c2C(CC)(CC)c2cc(-c4cccs4)ccc2-3)C(CC)(CC)c2cc(-c3cccs3)ccc2-1, which fluorescence lifetime (in C1CCOC1) is on record?
Answer: 2.1 ns

Question: With CCCCCCCCCCCCN1C(=O)c2c(c3ccc4cc(-c5ccc(C=O)cc5)c(OC)cc4c3c3c2ccc2cc(-c4ccc(C=O)cc4)c(OC)cc23)C1=O as the molecule, how does the fluorescence lifetime (in ClCCl) read?
Answer: 6.45 ns
